Measurements as given in ChEMBL document CHEMBL4393669, “D2 Dopamine Receptor G Protein-Biased Partial Agonists Based on Cariprazine” (J Med Chem, 2019).
Activity calls are given as the source filed them. The rule behind the calls is not given here.

Assays:
[1] = molecular target: D(2) dopamine receptor (Homo sapiens) (UniProt P14416)
Mus musculus = organism: Mus musculus; conditions: C57

Sequence of D(2) dopamine receptor (Homo sapiens) (P14416 whole entry): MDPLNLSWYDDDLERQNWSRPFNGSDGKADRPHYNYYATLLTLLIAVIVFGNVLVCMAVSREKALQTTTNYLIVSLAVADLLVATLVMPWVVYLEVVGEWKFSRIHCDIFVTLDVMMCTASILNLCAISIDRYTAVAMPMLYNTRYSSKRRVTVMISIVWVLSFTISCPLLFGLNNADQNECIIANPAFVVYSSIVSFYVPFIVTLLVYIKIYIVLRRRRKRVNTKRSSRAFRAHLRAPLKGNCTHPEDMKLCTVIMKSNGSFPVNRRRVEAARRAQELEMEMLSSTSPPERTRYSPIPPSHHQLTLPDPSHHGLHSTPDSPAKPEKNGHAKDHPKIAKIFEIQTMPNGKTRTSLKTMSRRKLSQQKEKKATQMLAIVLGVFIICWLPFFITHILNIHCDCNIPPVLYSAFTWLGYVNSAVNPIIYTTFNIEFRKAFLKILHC

Row | SMILES | pEC50 [1] | Occ (Mus musculus)
1 | CN(C)C(=O)Nc1ccc(CCN2CCc3ccccc3C2)cc1 | inactive | 
2 | CN(C)C(=O)NCCCCCN1CCc2ccccc2C1 | inactive | 
3 | CN(C)C(=O)N[C@H]1CC[C@H](CCN2CCc3cccc(Cl)c3C2)CC1 |  | Dose-dependent effect
4 | CN(C)C(=O)N[C@H]1CC[C@H](CN2CCc3ccccc3C2)CC1 | inactive | 
